According to US6696461B2, “Tricyclic imidazopyridines” (Altana Pharma AG, priority 2000, dated 2004):

What was measured:
[1] = system: pentagastrin-stimulated acid secretion of the perfused rat stomach; test: Secretion-inhibiting action on the perfused rat stomach (pentagastrin-stimulated acid secretion, i.v. administration in vivo); settings: anesthetized CD rat, dose 3 μmol/kg i.v.
From the text: Testing of the Secretion-inhibiting Action on the Perfused Rat Stomach
In Table A which follows, the influence of the compounds according to the invention on the pentagastrin-stimulated acid secretion of the perfused rat stomach after intravenous administration in vivo is shown.
The abdomen of anesthetized rats (CD rat, female, 200-250 g; 1.5 g/kg i.m. urethane) was opened after tracheotomy by a median upper abdominal incision and a PVC catheter was fixed transorally in the esophagus and another via the pylorus such that the ends of the tube just projected into the gastric lumen. The catheter leading from the pylorus led outward into the right abdominal wall through a side opening.
After thorough rinsing (about 50-100 ml), warm (37° C.) physiological NaCl solution was continuously passed through the stomach (0.5 ml/min, pH 6.8-6.9; Braun-Unita 1). The pH (pH meter 632, glass electrode EA 147; φ=5 mm, Metrohm) and, by titration with a freshly prepared 0.01N NaOH solution to pH 7 (Dosimat 665 Metrohm), the secreted HCl were determined in the effluent in each case collected at an interval of 15 minutes.
The gastric secretion was stimulated by continuous infusion of […] (=1.65 ml/h) of i.v. pentagastrin (left femoral vein) about 30 min after the end of the operation (i.e. after determination of 2 preliminary fractions). […]

melting point	Structure (SMILES)	Inhibition of acid secretion [1]
126 to 129 °C (dec.)	COCc1cn2c(C)c(C)nc2c2c1[C@H](OC)[C@H](O)[C@@H](c1ccccc1)N2 [Example 17, (7S,8R,9R)-8-Hydroxy-7-methoxy-6-methoxymethyl-2,3-dimethyl-9-phenyl-7,8,9,10-tetrahydroimidazo[1,2-h][1,7]naphthyridine]	100%
184 to 186 °C (dec.)	CCO[C@@H]1c2c(COC)cn3c(C)c(C)nc3c2N[C@H](c2ccccc2)[C@H]1O [Example 21, (7R,8R,9R)-8-Hydroxy-7-ethoxy-6-methoxymethyl-2,3-dimethyl-9-phenyl-7,8,9,10-tetrahydroimidazo[1,2-h][1,7]naphthyridine]	–
163 to 164 °C (dec.)	CCO[C@H]1c2c(COC)cn3c(C)c(C)nc3c2N[C@H](c2ccccc2)[C@H]1O [Example 22, (7S,8R,9R)-8-Hydroxy-7-ethoxy-6-methoxymethyl-2,3-dimethyl-9-phenyl-7,8,9,10-tetrahydroimidazo[1,2-h][1,7]naphthyridine]	–

Further lines, the molecule ahead of its results:

Structure (SMILES)	melting point	Inhibition of acid secretion [1]
COCc1cn2c(C)c(C)nc2c2c1[C@H](O)[C@H](O)[C@@H](c1ccccc1)N2 [Example 15, (7S,8R,9R)-7,8-Dihydroxy-6-methoxymethyl-2,3-dimethyl-9-phenyl-7,8,9,10-tetrahydroimidazo[1,2-h][1,7]naphthyridine]	182 to 183 °C (dec.)	–
COCCO[C@@H]1c2c(COC)cn3c(C)c(C)nc3c2N[C@H](c2ccccc2)[C@H]1O [Example 19, (7R,8R,9R)-8-Hydroxy-7-(2-methoxyethoxy)-6-methoxymethyl-2,3-dimethyl-9-phenyl-7,8,9,10-tetrahydroimidazo[1,2-h][1,7]naphthyridine]	158 to 160 °C	–
COCCO[C@H]1c2c(COC)cn3c(C)c(C)nc3c2N[C@H](c2ccccc2)[C@H]1O [Example 20, (7S,8R,9R)-8-Hydroxy-7-(2-methoxyethoxy)-6-methoxymethyl-2,3-dimethyl-9-phenyl-7,8,9,10-tetrahydroimidazo[1,2-h][1,7]naphthyridine]	158 to 160 °C (dec.)	–
